# How the values were obtained:
# Assay type in all cases: binding
# CLK3 = target: T1, CLK3 (Homo sapiens, UniProt P49761); test: ScanMAX Kinase analysis panel, CLK3; conditions: 1 μM in DMSO; <35% considered inhibitory; read-out: percent control (% control), CLK3
# T1 construct: purchased DiscoverX Corp. (ScanMAX Kinase analysis panel, service)
# Protocol: (§1) Specifically, the enzyme (kinase) selectivity of Example compounds 238, 361, 411, 157, 161, 228, and 158 selected from the Example compounds of the present invention was determined by commissioning DiscoverX Corp., and an experiment was performed using a ScanMAX™ Kinase analysis panel. In this case, a concentration of the drug with which the enzymes were treated was 1 μM in DMSO, and the percent control (% control) was defined in the same manner as in the following Expression 1.
# (§2) (Example Compound−Positive Control)/(Negative Control−Positive Control)×100 [Expression 1]
# (§3) wherein the positive control represents a compound having a percent control of 0%, and the negative control represents DMSO having a percent control of 100%. For the enzyme selectivity of the present invention, it was considered that the compound has an inhibitory activity on each of the enzymes when the percent control for the corresponding enzyme was <35% (i. e., less than 35%).
# CSNK1D = target: T2, CSNK1D (Homo sapiens, UniProt P48730); test: ScanMAX Kinase analysis panel, CSNK1D; conditions: 1 μM in DMSO; <35% considered inhibitory; read-out: percent control (% control), CSNK1D
# T2 construct: purchased DiscoverX Corp. (ScanMAX Kinase analysis panel, service)
# Protocol: as §1, §2, §3
# CSNK1E = target: T3, CSNK1E (Homo sapiens, UniProt P49674); test: ScanMAX Kinase analysis panel, CSNK1E; conditions: 1 μM in DMSO; <35% considered inhibitory; read-out: percent control (% control), CSNK1E
# T3 construct: purchased DiscoverX Corp. (ScanMAX Kinase analysis panel, service)
# Protocol: as §1, §2, §3
# DYRK2 = target: T4, DYRK2 (Homo sapiens, UniProt Q92630); test: ScanMAX Kinase analysis panel, DYRK2; conditions: 1 μM in DMSO; <35% considered inhibitory; read-out: percent control (% control), DYRK2
# T4 construct: purchased DiscoverX Corp. (ScanMAX Kinase analysis panel, service)
# T4 sequence (Q92630 1-601): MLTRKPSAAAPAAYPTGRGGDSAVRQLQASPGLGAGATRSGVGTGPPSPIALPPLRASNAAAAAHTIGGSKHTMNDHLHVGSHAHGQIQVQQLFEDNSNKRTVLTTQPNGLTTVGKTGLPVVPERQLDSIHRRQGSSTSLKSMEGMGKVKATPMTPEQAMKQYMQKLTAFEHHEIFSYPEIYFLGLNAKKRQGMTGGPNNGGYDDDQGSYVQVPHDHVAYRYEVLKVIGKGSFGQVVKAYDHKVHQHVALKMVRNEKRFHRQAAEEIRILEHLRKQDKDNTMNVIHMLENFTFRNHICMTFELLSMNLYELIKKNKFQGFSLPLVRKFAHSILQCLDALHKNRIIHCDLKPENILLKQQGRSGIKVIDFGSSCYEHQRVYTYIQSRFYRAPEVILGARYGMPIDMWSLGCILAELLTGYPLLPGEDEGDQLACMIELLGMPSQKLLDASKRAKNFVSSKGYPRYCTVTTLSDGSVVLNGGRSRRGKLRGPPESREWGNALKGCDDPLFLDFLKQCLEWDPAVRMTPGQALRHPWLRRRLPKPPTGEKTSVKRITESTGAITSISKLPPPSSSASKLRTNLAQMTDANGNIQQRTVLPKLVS
# Protocol: as §1, §2, §3
# GAK = target: T5, GAK (Homo sapiens, UniProt O14976); test: ScanMAX Kinase analysis panel, GAK; conditions: 1 μM in DMSO; <35% considered inhibitory; read-out: percent control (% control), GAK
# T5 construct: purchased DiscoverX Corp. (ScanMAX Kinase analysis panel, service)
# T5 sequence (O14976 1-1311): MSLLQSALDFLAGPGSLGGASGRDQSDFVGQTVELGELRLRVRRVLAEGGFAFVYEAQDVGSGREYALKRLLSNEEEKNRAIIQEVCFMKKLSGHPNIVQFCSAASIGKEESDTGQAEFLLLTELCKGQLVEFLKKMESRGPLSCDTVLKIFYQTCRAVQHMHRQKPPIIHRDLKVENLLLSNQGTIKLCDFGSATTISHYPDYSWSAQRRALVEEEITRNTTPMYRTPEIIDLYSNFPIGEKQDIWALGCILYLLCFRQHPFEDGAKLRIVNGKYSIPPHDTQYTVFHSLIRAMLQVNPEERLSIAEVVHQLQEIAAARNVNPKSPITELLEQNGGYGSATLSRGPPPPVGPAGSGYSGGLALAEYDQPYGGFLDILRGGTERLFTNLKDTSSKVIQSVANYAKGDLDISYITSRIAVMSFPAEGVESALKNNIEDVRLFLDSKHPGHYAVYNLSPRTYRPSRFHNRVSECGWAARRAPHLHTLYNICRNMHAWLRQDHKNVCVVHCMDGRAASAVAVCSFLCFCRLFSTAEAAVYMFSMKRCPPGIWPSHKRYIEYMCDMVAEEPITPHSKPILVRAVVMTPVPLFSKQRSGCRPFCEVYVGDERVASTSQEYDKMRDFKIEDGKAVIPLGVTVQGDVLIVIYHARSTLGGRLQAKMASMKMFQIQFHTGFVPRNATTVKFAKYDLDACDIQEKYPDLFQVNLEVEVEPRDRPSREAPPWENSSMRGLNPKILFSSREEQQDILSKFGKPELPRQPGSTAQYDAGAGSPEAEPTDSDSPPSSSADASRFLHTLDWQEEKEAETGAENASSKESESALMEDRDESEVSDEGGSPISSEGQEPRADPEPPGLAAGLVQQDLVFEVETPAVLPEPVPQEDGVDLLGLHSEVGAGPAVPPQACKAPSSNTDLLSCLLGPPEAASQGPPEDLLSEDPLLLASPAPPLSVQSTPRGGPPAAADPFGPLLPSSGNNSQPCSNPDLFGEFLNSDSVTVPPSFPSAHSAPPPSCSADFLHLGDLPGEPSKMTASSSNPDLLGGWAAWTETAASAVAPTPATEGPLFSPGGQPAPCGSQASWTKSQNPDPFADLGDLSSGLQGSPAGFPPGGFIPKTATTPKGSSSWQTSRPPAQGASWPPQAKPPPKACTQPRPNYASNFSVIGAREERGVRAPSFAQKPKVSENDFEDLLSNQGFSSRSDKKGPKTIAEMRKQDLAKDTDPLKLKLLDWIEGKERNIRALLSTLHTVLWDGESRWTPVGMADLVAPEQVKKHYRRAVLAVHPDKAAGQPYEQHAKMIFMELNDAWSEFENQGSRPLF
# Protocol: as §1, §2, §3
# PHKG1 = target: T6, PHKG1 (Homo sapiens, UniProt Q16816); test: ScanMAX Kinase analysis panel, PHKG1; conditions: 1 μM in DMSO; <35% considered inhibitory; read-out: percent control (% control), PHKG1
# T6 construct: purchased DiscoverX Corp. (ScanMAX Kinase analysis panel, service)
# Protocol: as §1, §2, §3
# LRRK2 (G2019S) = LRRK2 (G2019S) (Homo sapiens, UniProt Q5S007, G2019S); test: ScanMAX Kinase analysis panel, LRRK2 (G2019S); design: purchased DiscoverX Corp. (ScanMAX Kinase analysis panel, service); conditions: 1 μM in DMSO; <35% considered inhibitory; read-out: percent control (% control), LRRK2 (G2019S)
# Protocol: as §1, §2, §3
# T2 sequence (P48730 whole entry): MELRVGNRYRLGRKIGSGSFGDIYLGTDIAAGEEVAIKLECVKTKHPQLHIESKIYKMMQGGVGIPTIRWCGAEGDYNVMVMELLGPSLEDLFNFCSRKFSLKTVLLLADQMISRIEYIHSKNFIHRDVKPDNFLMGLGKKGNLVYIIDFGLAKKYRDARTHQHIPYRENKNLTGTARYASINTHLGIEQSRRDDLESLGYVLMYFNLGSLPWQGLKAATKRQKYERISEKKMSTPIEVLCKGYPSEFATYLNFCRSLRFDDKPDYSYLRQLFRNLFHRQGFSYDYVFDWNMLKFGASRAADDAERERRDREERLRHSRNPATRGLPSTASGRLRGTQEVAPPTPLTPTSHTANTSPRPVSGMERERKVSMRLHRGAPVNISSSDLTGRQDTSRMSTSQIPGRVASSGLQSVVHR
# T6 sequence (Q16816 whole entry): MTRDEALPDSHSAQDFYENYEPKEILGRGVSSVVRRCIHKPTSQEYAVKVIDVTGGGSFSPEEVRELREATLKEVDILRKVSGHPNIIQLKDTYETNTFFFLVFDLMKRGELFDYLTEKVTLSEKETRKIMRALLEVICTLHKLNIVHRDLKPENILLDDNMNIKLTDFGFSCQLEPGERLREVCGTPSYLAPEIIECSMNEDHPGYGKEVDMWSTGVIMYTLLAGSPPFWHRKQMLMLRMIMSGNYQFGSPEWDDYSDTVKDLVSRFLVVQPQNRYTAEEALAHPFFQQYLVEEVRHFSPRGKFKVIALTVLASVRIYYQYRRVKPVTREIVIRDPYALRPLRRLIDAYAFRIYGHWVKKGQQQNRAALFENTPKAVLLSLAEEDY
# Chain of LRRK2 (G2019S) (Q5S007 whole entry G2019S): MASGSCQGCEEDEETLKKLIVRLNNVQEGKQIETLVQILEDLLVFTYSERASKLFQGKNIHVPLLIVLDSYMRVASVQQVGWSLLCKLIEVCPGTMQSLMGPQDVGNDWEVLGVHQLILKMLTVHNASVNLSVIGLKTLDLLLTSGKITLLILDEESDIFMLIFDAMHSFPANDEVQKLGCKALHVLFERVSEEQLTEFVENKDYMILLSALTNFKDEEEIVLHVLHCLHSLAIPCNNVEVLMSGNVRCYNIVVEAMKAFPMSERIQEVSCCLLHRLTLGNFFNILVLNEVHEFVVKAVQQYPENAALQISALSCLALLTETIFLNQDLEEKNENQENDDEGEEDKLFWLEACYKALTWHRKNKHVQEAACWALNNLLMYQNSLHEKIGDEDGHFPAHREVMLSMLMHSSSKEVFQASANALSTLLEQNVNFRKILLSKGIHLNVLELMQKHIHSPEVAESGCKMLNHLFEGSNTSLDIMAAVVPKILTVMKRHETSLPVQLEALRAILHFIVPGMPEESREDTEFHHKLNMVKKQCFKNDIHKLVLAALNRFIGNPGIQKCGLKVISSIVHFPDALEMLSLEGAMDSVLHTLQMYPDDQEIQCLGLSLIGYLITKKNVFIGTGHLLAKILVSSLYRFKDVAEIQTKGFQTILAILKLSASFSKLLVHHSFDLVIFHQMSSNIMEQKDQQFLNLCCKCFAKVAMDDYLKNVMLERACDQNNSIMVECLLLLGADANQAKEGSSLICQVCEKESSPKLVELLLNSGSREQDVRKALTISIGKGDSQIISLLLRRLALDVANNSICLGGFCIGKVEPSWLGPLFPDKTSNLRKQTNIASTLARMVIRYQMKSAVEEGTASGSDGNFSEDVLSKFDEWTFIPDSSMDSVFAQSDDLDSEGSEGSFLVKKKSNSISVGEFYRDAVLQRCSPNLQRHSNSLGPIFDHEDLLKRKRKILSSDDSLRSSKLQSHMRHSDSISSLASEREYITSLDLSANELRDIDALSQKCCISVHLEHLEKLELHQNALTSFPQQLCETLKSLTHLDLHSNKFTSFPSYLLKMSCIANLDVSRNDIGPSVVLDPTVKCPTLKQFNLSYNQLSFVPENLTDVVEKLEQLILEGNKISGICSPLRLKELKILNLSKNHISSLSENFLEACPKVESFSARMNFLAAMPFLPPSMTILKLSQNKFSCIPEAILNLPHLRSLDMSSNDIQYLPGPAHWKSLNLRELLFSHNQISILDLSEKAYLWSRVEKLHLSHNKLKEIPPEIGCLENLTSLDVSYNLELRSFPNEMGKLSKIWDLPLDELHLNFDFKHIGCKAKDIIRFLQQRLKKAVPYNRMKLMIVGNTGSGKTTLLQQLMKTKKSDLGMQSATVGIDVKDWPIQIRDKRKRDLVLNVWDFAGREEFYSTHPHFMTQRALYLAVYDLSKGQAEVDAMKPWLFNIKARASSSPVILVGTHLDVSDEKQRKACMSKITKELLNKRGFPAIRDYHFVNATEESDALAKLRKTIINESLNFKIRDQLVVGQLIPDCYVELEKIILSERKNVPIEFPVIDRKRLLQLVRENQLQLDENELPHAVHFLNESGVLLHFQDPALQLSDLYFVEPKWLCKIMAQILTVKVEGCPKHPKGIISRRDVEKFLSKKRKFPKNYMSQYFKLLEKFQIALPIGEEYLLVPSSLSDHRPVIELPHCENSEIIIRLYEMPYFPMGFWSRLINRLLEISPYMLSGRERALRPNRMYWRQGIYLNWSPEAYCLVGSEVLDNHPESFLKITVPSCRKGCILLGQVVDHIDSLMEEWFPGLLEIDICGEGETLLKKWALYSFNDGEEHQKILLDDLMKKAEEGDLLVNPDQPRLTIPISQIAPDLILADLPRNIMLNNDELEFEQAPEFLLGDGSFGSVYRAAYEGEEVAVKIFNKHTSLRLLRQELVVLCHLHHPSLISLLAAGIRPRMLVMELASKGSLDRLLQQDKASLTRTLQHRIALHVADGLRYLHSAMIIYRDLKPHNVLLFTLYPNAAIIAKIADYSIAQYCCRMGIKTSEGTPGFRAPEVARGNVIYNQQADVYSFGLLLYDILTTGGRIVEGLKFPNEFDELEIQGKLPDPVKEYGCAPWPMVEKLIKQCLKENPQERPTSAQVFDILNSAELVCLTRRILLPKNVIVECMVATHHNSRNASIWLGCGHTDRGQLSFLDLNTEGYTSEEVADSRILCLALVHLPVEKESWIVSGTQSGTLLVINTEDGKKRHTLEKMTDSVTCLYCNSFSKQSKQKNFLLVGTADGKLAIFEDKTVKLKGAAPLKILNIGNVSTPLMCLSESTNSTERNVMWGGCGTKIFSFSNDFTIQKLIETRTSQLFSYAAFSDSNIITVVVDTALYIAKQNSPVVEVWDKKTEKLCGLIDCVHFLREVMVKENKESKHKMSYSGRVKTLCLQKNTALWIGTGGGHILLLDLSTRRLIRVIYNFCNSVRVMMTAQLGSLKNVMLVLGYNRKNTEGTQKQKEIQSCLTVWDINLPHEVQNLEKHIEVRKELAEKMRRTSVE
# T1 sequence (P49761 whole entry): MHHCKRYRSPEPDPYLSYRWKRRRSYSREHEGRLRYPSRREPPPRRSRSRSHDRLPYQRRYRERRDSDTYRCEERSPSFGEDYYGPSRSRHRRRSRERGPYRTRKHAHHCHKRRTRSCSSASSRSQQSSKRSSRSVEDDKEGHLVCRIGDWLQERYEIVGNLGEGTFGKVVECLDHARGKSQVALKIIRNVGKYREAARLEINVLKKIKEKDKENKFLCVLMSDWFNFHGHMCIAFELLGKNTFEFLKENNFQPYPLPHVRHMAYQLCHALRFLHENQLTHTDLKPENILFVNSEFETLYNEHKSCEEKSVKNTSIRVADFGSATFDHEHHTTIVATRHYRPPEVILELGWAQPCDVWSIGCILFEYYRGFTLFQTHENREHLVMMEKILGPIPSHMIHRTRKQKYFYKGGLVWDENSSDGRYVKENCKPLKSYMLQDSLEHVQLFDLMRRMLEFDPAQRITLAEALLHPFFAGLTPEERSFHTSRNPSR
# T3 sequence (P49674 whole entry): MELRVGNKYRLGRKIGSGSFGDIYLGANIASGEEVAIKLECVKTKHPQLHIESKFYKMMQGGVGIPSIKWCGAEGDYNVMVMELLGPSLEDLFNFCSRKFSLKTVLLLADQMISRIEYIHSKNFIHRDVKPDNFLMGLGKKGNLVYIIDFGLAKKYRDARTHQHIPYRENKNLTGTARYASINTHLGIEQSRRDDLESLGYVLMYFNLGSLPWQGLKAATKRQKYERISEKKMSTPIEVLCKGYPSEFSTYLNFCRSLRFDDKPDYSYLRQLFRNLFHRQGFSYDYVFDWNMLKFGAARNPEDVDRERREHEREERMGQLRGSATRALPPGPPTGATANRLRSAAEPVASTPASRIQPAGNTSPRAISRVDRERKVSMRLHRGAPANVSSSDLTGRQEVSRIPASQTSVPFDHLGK
Compound,remaining binding at 1 µM (CLK3) [%],remaining binding at 1 µM (CSNK1D) [%],remaining binding at 1 µM (CSNK1E) [%],remaining binding at 1 µM (DYRK2) [%],remaining binding at 1 µM (GAK) [%],remaining binding at 1 µM (PHKG1) [%],remaining binding at 1 µM (LRRK2 (G2019S)) [%]
"CNc1nc(Nc2ccc(S(=O)(=O)N3CCC(N4CCOCC4)CC3)cc2OC)nc2[nH]cc(C(F)(F)F)c12 [Example 157, N^2-(2-methoxy-4-((4-morpholinopiperidin-1-yl)sulfonyl)phenyl)-N^4-methyl-5-(trifluoromethyl)-7H-pyrrolo[2,3-d]pyrimidine-2,4-diamine 2,2,2-trifluoroacetate]",3.7,2.9,2.4,7,4.2,7.8,1.6
"CCNc1nc(Nc2ccc(S(=O)(=O)N3CCC(N4CCOCC4)CC3)cc2OC)nc2[nH]cc(C(F)(F)F)c12 [Example 158, N^4-ethyl-N^2-(2-methoxy-4-((4-morpholinopiperidin-1-yl)sulfonyl)phenyl)-5-(trifluoromethyl)-7H-pyrrolo[2,3-d]pyrimidine-2,4-diamine 2,2,2-trifluoroacetate]",11,5.3,3.3,25,21,25,3.6
"CCCNc1nc(Nc2ccc(S(=O)(=O)N3CCC(N4CCOCC4)CC3)cc2OC)nc2[nH]cc(C(F)(F)F)c12 [Example 161, N^2-(2-methoxy-4-((4-morpholinopiperidin-1-yl)sulfonyl)phenyl)-N^4-propyl-5-(trifluoromethyl)-7H-pyrrolo[2,3-d]pyrimidine-2,4-diamine]",11,15,12,33,4,24,0
"O=C(c1ccc(Nc2nc(C3CC3)c3c(C(F)(F)F)c[nH]c3n2)c2c1OCCO2)N1CCC(N2CCOCC2)CC1 [Example 228, (8-((4-cyclopropyl-5-(trifluoromethyl)-7H-pyrrolo[2,3-d]pyrimidin-2-yl)amino)-2,3-dihydrobenzo[b][1,4]dioxin-5-yl)(4-morpholinopiperidin-1-yl)methanone]",25,45,40,16,3,30,1.1
"CNc1nc(Nc2ccc(C(=O)N3CCC(N4CCOCC4)CC3)c3c2OCCO3)nc2[nH]cc(C(F)(F)F)c12 [Example 238, (8-((4-(methylamino)-5-(trifluoromethyl)-7H-pyrrolo[2,3-d]pyrimidin-2-yl)amino)-2,3-dihydrobenzo[b][1,4]dioxin-5-yl)(4-morpholinopiperidin-1-yl)methanone]",7.8,16,32,19,3.1,3.6,0.05
"C=CCNc1nc(Nc2ccc(S(=O)(=O)N3CCC(N4CCOCC4)CC3)cc2OC)nc2[nH]cc(C#N)c12 [Example 361, 4-(allylamino)-2-((2-methoxy-4-((4-morpholino-piperidin-1-yl)sulfonyl)phenyl)amino)-7H-pyrrolo[2,3-d]pyrimidine-5-carbonitrile]",21,3.9,0.05,10,2.7,9.7,0
"CNc1nc(Nc2ccc(P3(=O)CCN(C4CC4)CC3)cc2OC)nc2[nH]cc(C(F)(F)F)c12 [Example 411, 1-cyclopropyl-4-(3-methoxy-4-((4-(methylamino)-5-(trifluoromethyl)-7H-pyrrolo[2,3-d]pyrimidin-2-yl)amino)phenyl)-1,4-azaphosphinane-4-oxide]",21,14,31,28,2.4,17,1.3
